The data set in a line: xn = mol fraction of the nth substance listed. The following applies: 298.15 K, 101 kPa, Liquid, holographic laser-interferometry using flow junction cell.

As for `CCCCCl` [1-chlorobutane] + CCCO, the binary diffusion coefficient came to 1.2e-09 m2/s (x1 = 0.013); 1.18e-09 m2/s (x1 = 0.1); 1.13e-09 m2/s (x1 = 0.3); 1.09e-09 m2/s (x1 = 0.5); 1.14e-09 m2/s (x1 = 0.7); 1.45e-09 m2/s (x1 = 0.9). Also, under “x1 = 0.97”, the binary diffusion coefficient worked out at 2.51e-09 m2/s.
Take `CC(C)=O` [acetone] + CCCCO: the binary diffusion coefficient (x1 = 0.0125) was 9.5e-10 m2/s; the binary diffusion coefficient (x1 = 0.1) is 1e-09 m2/s; the binary diffusion coefficient (x1 = 0.2) was determined as 1.07e-09 m2/s; the binary diffusion coefficient (x1 = 0.3) stood at 1.13e-09 m2/s; the binary diffusion coefficient (x1 = 0.4) stood at 1.29e-09 m2/s; the binary diffusion coefficient (x1 = 0.5) came to 1.38e-09 m2/s. Further, the binary diffusion coefficient by setting is: (x1 = 0.6) 1.49e-09 m2/s; (x1 = 0.7) 1.72e-09 m2/s; (x1 = 0.8) 1.85e-09 m2/s; (x1 = 0.9) 2.43e-09 m2/s; (x1 = 0.9915) 2.75e-09 m2/s; (x1 = 0.9925) 2.73e-09 m2/s.
Consider `CC(C)=O` [acetone] + CCCO, for which the binary diffusion coefficient (x1 = 0.015) was 1.14e-09 m2/s; the binary diffusion coefficient (x1 = 0.1) is 1.22e-09 m2/s; the binary diffusion coefficient (x1 = 0.2) was determined as 1.33e-09 m2/s; the binary diffusion coefficient (x1 = 0.3) was 1.4e-09 m2/s; the binary diffusion coefficient (x1 = 0.4) was 1.49e-09 m2/s; the binary diffusion coefficient (x1 = 0.5) worked out at 1.64e-09 m2/s. Moreover, the binary diffusion coefficient was 1.74e-09 m2/s (x1 = 0.6); 1.98e-09 m2/s (x1 = 0.7); 2.4e-09 m2/s (x1 = 0.8); 2.67e-09 m2/s (x1 = 0.9); 3.12e-09 m2/s (x1 = 0.985).
For `CC(C)=O` [acetone] + O, the binary diffusion coefficient turned out to be 1.25e-09 m2/s (x1 = 0.004); 8e-10 m2/s (x1 = 0.1); 6.3e-10 m2/s (x1 = 0.3); 8.3e-10 m2/s (x1 = 0.5); 1.63e-09 m2/s (x1 = 0.7); 3.44e-09 m2/s (x1 = 0.9). Besides, the binary diffusion coefficient (x1 = 0.975) stood at 4.62e-09 m2/s.
Consider `CCCO` [propan-1-ol] + O, for which the binary diffusion coefficient (x1 = 0.002) is 1.04e-09 m2/s; the binary diffusion coefficient (x1 = 0.05) was 5.2e-10 m2/s; the binary diffusion coefficient (x1 = 0.1) came to 1.7e-10 m2/s; the binary diffusion coefficient (x1 = 0.2) turned out to be 1e-10 m2/s; the binary diffusion coefficient (x1 = 0.4) came to 1.9e-10 m2/s; the binary diffusion coefficient (x1 = 0.6) is 3.3e-10 m2/s. The binary diffusion coefficient reads like this: (x1 = 0.8) 5e-10 m2/s; (x1 = 0.9) 5.3e-10 m2/s.
